According to US20160074480A1, “INNOVATIVE METHODS OF TREATMENTING TUBERCULOSIS” (priority 2015, published 2016):

What was measured:
[1] = in vivo; cited from earlier work
tuberculosis bacteria = details: treated for 3 days, versus untreated sample; cited from earlier work
latent tuberculosis = details: taken daily for 9 months; cited from earlier work
pulmonary tuberculosis = details: given alone; cited from earlier work
[2] = 2 mg/kg; amikacin 450 mg/kg; cited from earlier work
[3] = system: Mycobacterium tuberculosis growth; details: cited from earlier work
[4] = Finger stick blood sugar after insulin; assay type: in vivo, human; details: 10 minutes after 5-10 units subcutaneously or IV
Procedure: Blood sugar was tested by using finger stick. We administered 5-10 units of homolog (rapid acting) insulin subcutaneously or IV slowly depending on the blood sugar levels. The glucose was checked 10 minutes later. It has dropped to ±40 mg %.

[5] = system: MCF-7 Human Breast Cancer Cells; details: insulin with methotrexate; cited from earlier work
M. tuberculosis = details: added to or substituted in isoniazid, rifampicin and pyrazinamide triple therapy; cited from earlier work

NNC(=O)c1ccncc1 [isoniazid, Isoniazid]
ADVERSE EVENT/CONTRAINDICATION [1]: Peripheral neuropathy | intracellular levels of ferrous ions (tuberculosis bacteria): up to ten times higher | reduction of the risk of active TB (latent tuberculosis): ≤ 90%

[H]/N=C(/N)N[C@H]1[C@H](O)[C@@H](O)[C@H](O[C@@H]2O[C@@H](C)[C@](O)(C=O)[C@H]2O[C@@H]2O[C@@H](CO)[C@H](O)[C@@H](O)[C@@H]2NC)[C@@H](N/C(N)=N\[H])[C@@H]1O [Streptomycin]
immediate mortality (pulmonary tuberculosis): dramatic reduction in immediate mortality | ADVERSE EVENT/CONTRAINDICATION [1]: Deafness, Contraindicated during pregnancy

CCOC(=O)C1=C[C@]2(CC)CCCN3CCc4c(n1c1ccccc41)[C@@H]32 [Vinpocetine]
hearing loss [2]: prevented hearing loss

Capreomycin
concentration inhibiting growth [3]: 2.5 µg/mL | adverse effects stated in the text [1]: nephrotoxicity and 8th cranial auditory vestibular nerve toxicity

insulin: hormone produced in beta cells of pancreas, large polypeptide of A and B chains
blood glucose by finger stick [4]: ~40 mg % | enhancement of the activity of methotrexate [5]: 10,000 times

COc1nc2ccc(Br)cc2cc1[C@@H](c1ccccc1)[C@@](O)(CCN(C)C)c1cccc2ccccc12 [R-207910, Bedaquiline]
effectiveness of treatment (M. tuberculosis): increased the effectiveness
